Assay results published in US20200222474A1, “COMPOSITIONS AND METHODS FOR INCREASING PHYTOCHEMICAL BIOAVAILABLITY AND BIOACTIVITY” (North Carolina State University, priority 2017, published 2020).

What was measured:
L. acidophilus NCFM = assay: Plant glycoside uptake and metabolite analysis of L. acidophilus NCFM culture supernatants by UHPLC-DAD-Q-TOF-MS; type: cell-based, Lactobacillus acidophilus; conditions: for aglycone / main metabolite identified in culture supernatant: L. acidophilus NCFM growing on the glycoside, up to 24 h; for order of depletion from equimolar mixture of salicin, esculin and amygdalin: culture supernatants, 24 hours growth; for Catabolism based on MS: qualitative: depletion of the plant glycoside and/or appearance of its metabolites
Method: For initial growth and gene expression studies, L. acidophilus NCFM was propagated three times in semi-defined medium (SDM) supplemented with either 1% or 0,5% (w/v) of the plant glycoside or carbohydrate (Table 1). For the RNA-seq analysis, cells were harvested by centrifugation (3,220×10 min, 25° C.) in the mid-exponential phase (OD600=0.6-0.8) and stored at −80° C. for subsequent RNA isolation. For the mass spectrometry metabolite analyses, 200 μt samples were taken at 0, 3, 6, 9, 12, and 24 hours of growth; cells were removed by centrifugation; and supernatants were stored at −80° C. for further analysis.
Analysis of plant glycoside uptake from L. acidophilus NCFM culture supernatants using mass spectrometry. The supernatants of L. acidophilus NCFM cultures grown on amygdalin, arbutin, esculin or salicin as carbon sources were analyzed during 24 hours by ultra-high performance liquid chromatography-diode array detection-quadruple time of flight mass spectrometry (UHPLC-DAD-Q-TOF-MS). Samples were diluted 1:20 (v/v) with methanol and an injection volume of […] was used. Separation was carried out on an Agilent Poroshell 120 phenyl-hexyl column (2.1×150 mm, 2.7 μm) using the Agilent Infinity 1290 UHPLC system (Agilent Technologies, Santa Clara, Calif., USA) equipped with a UV/vis spectrum diode array detector. Separation was performed at 0.35 mL min-1., 60° C. with a linear gradient consisting of water (A) and acetonitrile (B) both buffered with 20 mM formic acid, starting at 10% B and increased to 100% in 15 min where it was held for 2 min, returned to 10% in 0.1 min and kept for 3 min. MS detection was performed on an Agilent 6550 iFunnel QTOF MS equipped with Agilent Dual Jet Stream electrospray ion source with the drying gas temperature of 160° C. and gas flow of 13 L min^−1, whereas the sheath gas temperature was 300° C. and flow was 16 L min-1. Ionization was conducted in ESI-mode with capillary voltage set to 4000 V and nozzle voltage to 500 V. Mass spectra were recorded as centroid data for m/z 85-1700 in MS mode with an acquisition rate of 10 spectra s^−1. To avoid carry-over, the needle seat was back-flushed for 15 s at 4 mL min-1 with each of: i) isopropanol: 0.2% ammonium hydroxide (w/v) in water (1:1 v/v); ii) acetonitrile with 2% formic acid (w/v); iii) water with 2% formic acid. Data was processed with the Agilent Mass Hunter Qualitative Analysis B.07.00 software package (Agilent Technologies) and molar concentrations were obtained from standard curves of the plant glycosides and their main metabolites. Targeted compound searches were performed using lists of previously identified compounds plus standard chemical modifications.

NCK2422 (ΔLBA0725) = assay: Phenotypic growth analysis of deletion mutant (PTS EIICBA); type: cell-based, Lactobacillus acidophilus; conditions: for growth of the ΔLBA0725 mutant (inactive PTS EIICBA): compared with background Δupp strain
Method: Phenotypic growth assays were performed using 1% (v/v) overnight cultures of L. acidophilus strains (Table 2) and other Lactobacillus species (Table 3) grown on SDM supplemented with 1% (w/v) glucose to inoculate 200 μL of SDM supplemented with 1% (w/v) of the examined carbohydrate (0.5% in the case of esculin) in 96-well microplate wells (Corning Costar, Corning, N.Y., USA) in duplicate or triplicate wells, respectively. The microplates were sealed with clear adhesive film, incubated at 37° C. in a Fluostar Optima microplate reader (BMG Labtech, Cary, N.C., USA), and the cell optical density (OD600) was monitored for 30 hours.
Construction of gene deletion mutants. The L. acidophilus NCFM genes LBA0225 and LBA0726, both encoding P-Bgl of glycoside hydrolase family 1 (GH1) enzymes in addition to the LBA0227 and LBA0725 genes encoding an EIIC and an EIICBA components of two PTS systems, respectively, were deleted using the upp-based counterselectable gene replacement system. Briefly, in-frame deletions were constructed by amplifying 650-750 bp of the up- and downstream flanking regions of the deletion targets with two primer pairs (e.g., LBA0225A/LBA0225B and LBA0225C/LBA0225D; Table 4). The resulting purified products were joined by splicing using overlap extension PCR (SOE-PCR63) and amplified to establish the deletion alleles. The SOE-PCR products, that include flanking restriction enzyme sites, were cloned within the BamHI and SacI/EcoRI sites of the pTRK935 integration vector and transformed into E. coli EC101. The resulting recombinant plasmids (pTRK1113-6) were confirmed by DNA sequencing and electroporated into L. acidophilus NCK1910 (Table 2) that contains the pTRK669 helper plasmid, and the recovery of the single- and double-crossover recombinants was performed as previously described. Recombinants carrying the new gene deletion alleles were isolated by colony PCR using primer pairs denoted up/down (e.g., LBA0225up/LBA0225down), which anneal to the flanking regions of the amplicons. Sequence integrity and in-frame deletions were verified by DNA sequencing employing the aforementioned primer pairs and primer denoted mid (e.g., LBA0225mid). The mutations were in-frame deletions of 90-96% of the coding regions.
To establish the functional significance of these two loci, single deletions of each PTS EII and P-Bgl gene, and a double deletion of both P-Bgl genes were constructed using the upp-based counter-selectable gene replacement system (Table 2) and the growth phenotypes of the mutant strains were analyzed (FIG. 3). Phenotypic growth analyses of deletion mutants of EII PTS transporters (FIGS. 3A, 3C, 3E, 3G, and 3I) and phospho-β-glucosidase (FIGS. 3B, 3D, 3F, 3H, and 3J) on the β-glucosides esculin, salicin, amygdalin and the disaccharides gentiobiose and cellobiose. The background Aupp strain is shown as a grey fill graph and the growth of the mutant strains is shown as: PTS EIIC (LBA0227, pink triangle), the phospho-β-glucosidase (LBA0225, light blue triangles), the PTS EIICBA (LBA0725, yellow squares), the second phospho-β-glucosidase (LBA0726, lilac squares) and the double phospho-β-glucosidase mutant (LBA0225/LBA0726, black stars). The color scheme is consistent with that used for the gene loci in FIG. 2.

Compound	aglycone / main metabolite identified in culture supernatant (L. acidophilus NCFM)	order of depletion from equimolar mixture of salicin, esculin and amygdalin (L. acidophilus NCFM)	fraction of the initial glycoside utilized (L. acidophilus NCFM; during 24 hours growth, single carbon source)	Catabolism based on MS (L. acidophilus NCFM; growth concentration 1% (w/v))	reduction of growth on inactivation of the EIICBA (LBA0725) (NCK2422 (ΔLBA0725))	growth of the ΔLBA0725 mutant (inactive PTS EIICBA) (NCK2422 (ΔLBA0725))	Catabolism based on MS (L. acidophilus NCFM; growth concentration 0.5% (w/v))
N#C[C@H](O[C@@H]1O[C@H](CO[C@@H]2O[C@H](CO)[C@@H](O)[C@H](O)[C@H]2O)[C@@H](O)[C@H](O)[C@H]1O)c1ccccc1 [Amygdalin]	benzaldehyde	significant amounts of amygdalin persisted after 24 hours	about a third	Yes	about 50%	severely reduced	
O=c1ccc2cc(O[C@@H]3O[C@H](CO)[C@@H](O)[C@H](O)[C@H]3O)c(O)cc2o1 [Esculin]	esculetin					abolished	Yes
OCc1ccccc1O[C@@H]1O[C@H](CO)[C@@H](O)[C@H](O)[C@H]1O [Salicin]	salicyl alcohol	first compound to be fully depleted		Yes		abolished	
